Like-named read-outs stand apart in the source and are kept apart here.
Test system: SLC16A11
Test: Compound treatment, SLC16A11 expression by ddPCR in SNU761 cells
Type: cell-based, human
Protocol: A small number of the compounds that made the strongest positive connections to the SLC16A11 gene expression signature were selected and tested. […] Methotrexate was also included, which had been annotated as a dihydrofolate reductase inhibitor. SNU761 cells (derived from a human hepatocellular carcinoma) and NCIH716 cells (derived from a human cecum adenocarcinoma), which both express SLC16A11, were treated with the compounds. The same compound concentrations and treatment times were used as in the LINCS dataset experiments. […] For normalization, a different housekeeper gene, HPRT1, was used and obtained similar results with the mTOR inhibitors (FIGS. 14A and 14B).
From the total list of compounds, 59 readily available compounds were selected from the 79 compounds with the largest connectivity scores to the query signature and 20 middle compounds with connectivity scores centered on 0 (FIG. 15A) and then treated SNU761 cells at the same doses and treatment times as were used in the LINCS dataset. It was expected that the top compounds would be enriched for compounds that increased SLC16A11 expression. […] The results were aligned with the expectations (FIG. 15B). Hierarchical clustering of the SLC16 expression profiles generated by the compound treatments are shown by the heat map in FIG. 15C.
SNU761 (human hepatocellular carcinoma) and NCIH716 (human cecum adenocarcinoma) were cultured in RPMI Medium 1640 supplemented with 10% Fetal Bovine Serum (FBS), 100 μg/ml Streptomycin and 100 U/ml Penicillin. Cells were grown in a humidified CO2 incubator, at 37° C.
For the unbiased approach taken to investigate the compounds that connected to the SLC16A11 gene expression signature, compounds were obtained from compound management at the Broad Institute.
SNU761 and NCIH716 cells were plated into 96 well plates at a density of 20,000 cells per well. Hepatocytes were plated into collagen coated 96 well plates (Corning, 354408) at a density of 50,000 cells per well. After 24 hours, cells were treated with compounds at a final concentration of 10 μM or vehicle control for the appropriate amount of time.
At the time of collection, cells in 96 well plates were lysed by directly adding 50 μL of RLT buffer (Qiagen). 75 μL of AMPure XP beads, diluted by a factor of 5 in polyethylene glycol, were then added to bind nucleic acids. One wash with polyethylene glycol was then performed. DNase treatment (Qiagen) was carried out according to the manufacturer's protocol in a final volume of 50 μL. 100 μL of polyethylene glycol was added after the DNase treatment to crowd nucleic acids back onto the beads. Two washes with 80% ethanol were performed and residual ethanol was removed. RNA was then eluted in water.
RNA was DNase treated and converted into cDNA using the High-Capacity RNA-to-cDNA kit (Thermo Fisher Scientific). The following FAM-labeled TaqMan Real-Time PCR assays (Thermo Fisher Scientific) were used to quantify gene expression: SLC16A11 (Hs00601062_g1), SLC16A13 (Hs00416832_m1), SLC16A1 (Hs01560299_m1). The VIC-labeled TaqMan Real-Time assays TBP (Hs00427620_m1) or HPRT1 (Hs02800695_m1) were used for normalization. Droplets were generated and analyzed using a QX200 Droplet Generator and Reader system (BioRad). Data was extracted using QuantaSoft (BioRad) and analyzed using Microsoft Excel.

[1] = SNU761 cells, same doses and treatment times as in the LINCS dataset

## O=C(NOCC1CC1)c1ccc(F)c(F)c1Nc1ccc(I)cc1Cl [PD-184352]
[1]
  avg_fc (SLC16A11 expression, compound treated vs DMSO treated cells): 1.445

## O=C(NOC[C@H](O)CO)c1ccc(F)c(F)c1Nc1ccc(I)cc1F [PD-0325901]
[1]
  avg_fc (SLC16A11 expression, compound treated vs DMSO treated cells): 2.181

## Oc1cccc(-c2nc(N3CCOCC3)c3oc4ncccc4c3n2)c1 [PI-103, 3-(6-morpholin-4-yl-8-oxa-3,5,10-triazatricyclo[7.4.0.0^2,7]trideca-1 (9),2(7),3,5,10,12-hexaen-4-yl)phenol, reference compound]
[1]
  avg_fc (SLC16A11 expression, compound treated vs DMSO treated cells): 2.453

## Nc1ccc(-c2cccc3c(=O)cc(N4CCOCC4)oc23)cc1 [PI-828]
[1]
  avg_fc (SLC16A11 expression, compound treated vs DMSO treated cells): 1.336

## COc1ccc2c(c1OC)N=C(NC(=O)c1cccnc1)N1CCN=C21 [PIK-90]
[1]
  avg_fc (SLC16A11 expression, compound treated vs DMSO treated cells): 1.487

## Cn1cc(C(=O)C(=O)NC2CN3CCC2CC3)c2ccccc21 (stereo not drawn) [RS-56812]
[1]
  avg_fc (SLC16A11 expression, compound treated vs DMSO treated cells): 0.9914

## Cc1[nH]c(/C=C2\C(=O)Nc3ccc(S(=O)(=O)N(C)c4cccc(Cl)c4)cc32)c(C)c1C(=O)N1CCN(C)CC1 [SU-11274]
[1]
  avg_fc (SLC16A11 expression, compound treated vs DMSO treated cells): 1.059

## COC(=O)c1c(-c2cc(OC)c(OC)c(OC)c2)c2ccnc(OCc3ncccn3)c2c(=O)n1Cc1ccnc(C)c1 [T-0156]
[1]
  avg_fc (SLC16A11 expression, compound treated vs DMSO treated cells): 0.8378

## Nc1nc(N)c2nc(-c3cccc(O)c3)c(-c3cccc(O)c3)nc2n1 [TG100-115]
[1]
  avg_fc (SLC16A11 expression, compound treated vs DMSO treated cells): 1.086

## N#CC(=C(/N)Sc1ccccc1N)/C(C#N)=C(\N)Sc1ccccc1N [U0126]
  avg_fc (SLC16A11 expression, compound treated vs DMSO treated cells): 1.885

## NC(=O)c1ccc(N(C(N)=O)c2c(F)cccc2F)nc1-c1ccc(F)cc1F [VX-702]
[1]
  avg_fc (SLC16A11 expression, compound treated vs DMSO treated cells): 0.8683

## COC(=O)Nc1ccc(-c2nc(N3CCOCC3)c3cnn(C4CCN(C(=O)OC)CC4)c3n2)cc1 [WYE-354, methyl 4-[6-[4-(methoxycarbonylamino)phenyl]-4-morpholin-4-ylpyrazolo[3,4-d]pyrimidin-1-yl]piperidine-1-carboxylate, reference compound]
[1]
  avg_fc (SLC16A11 expression, compound treated vs DMSO treated cells): 3.517

## CNC(=O)Nc1ccc(-c2nc(N3CC4CCC(C3)O4)c3cnn(C4CCC5(CC4)OCCO5)c3n2)cc1 [WYE-125132]
[1]
  avg_fc (SLC16A11 expression, compound treated vs DMSO treated cells): 3.336

## COCCCOc1cc(C[C@@H](C[C@H](N)[C@@H](O)C[C@H](C(=O)NCC(C)(C)C(N)=O)C(C)C)C(C)C)ccc1OC [aliskiren]
[1]
  avg_fc (SLC16A11 expression, compound treated vs DMSO treated cells): 0.8853

## NS(=O)(=O)c1cc2c(cc1C(F)(F)F)NC(Cc1ccccc1)NS2(=O)=O (stereo not drawn) [bendroflumethiazide]
[1]
  avg_fc (SLC16A11 expression, compound treated vs DMSO treated cells): 0.7917

## CC(C)COCC(CN(Cc1ccccc1)c1ccccc1)N1CCCC1 (stereo not drawn) [bepridil]
[1]
  avg_fc (SLC16A11 expression, compound treated vs DMSO treated cells): 0.8545

## CCCC[C@@H](C=O)NC(=O)[C@H](CC(C)C)NC(=O)OCc1ccccc1 [calpeptin]
[1]
  avg_fc (SLC16A11 expression, compound treated vs DMSO treated cells): 1.034

## CC(C)OC(=O)c1cc2c(OCC(O)CNC(C)(C)C)cccc2[nH]1 (stereo not drawn) [carpindolol]
[1]
  avg_fc (SLC16A11 expression, compound treated vs DMSO treated cells): 0.8548

## CC1(C)C[C@@H]1C(=O)N/C(=C\CCCCSC[C@H](N)C(=O)O)C(=O)O [cilastatin]
[1]
  avg_fc (SLC16A11 expression, compound treated vs DMSO treated cells): 0.9371

## Nc1nc(Cl)nc2c1ncn2[C@H]1C[C@H](O)[C@@H](CO)O1 [cladribine]
[1]
  avg_fc (SLC16A11 expression, compound treated vs DMSO treated cells): 0.5994

## CN1CCN(C2=Nc3cc(Cl)ccc3Nc3ccccc32)CC1 [clozapine]
[1]
  avg_fc (SLC16A11 expression, compound treated vs DMSO treated cells): 0.9466

## C[C@@H]1C[C@@H]([C@H](O)CC2CC(=O)NC(=O)C2)C(=O)[C@@H](C)C1 [cycloheximide]
[1]
  avg_fc (SLC16A11 expression, compound treated vs DMSO treated cells): 1.243

## CO[C@H]1C[C@@H]2CC[C@@H](C)[C@@](O)(O2)C(=O)C(=O)N2CCCC[C@H]2C(=O)O[C@H]([C@H](C)C[C@@H]2CC[C@@H](OP(C)(C)=O)[C@H](OC)C2)CC(=O)[C@H](C)/C=C(\C)[C@@H](O)[C@@H](OC)C(=O)[C@H](C)C[C@H](C)/C=C/C=C/C=C/1C [deforolimus, reference compound]
[1]
  avg_fc (SLC16A11 expression, compound treated vs DMSO treated cells): 1.903

## C[C@H]1O[C@@H](O[C@H]2[C@@H](O)C[C@H](O[C@H]3[C@@H](O)C[C@H](O[C@H]4CC[C@@]5(C)[C@H](CC[C@@H]6[C@@H]5CC[C@]5(C)[C@@H](C7=CC(=O)OC7)CC[C@]65O)C4)O[C@@H]3C)O[C@@H]2C)C[C@H](O)[C@@H]1O [digitoxin]
[1]
  avg_fc (SLC16A11 expression, compound treated vs DMSO treated cells): 1.375

## Clc1ccc(COC(Cn2ccnc2)c2ccc(Cl)cc2Cl)cc1 (stereo not drawn) [econazole]
[1]
  avg_fc (SLC16A11 expression, compound treated vs DMSO treated cells): 1.178

## O=C1OC2(c3ccccc31)c1cc(I)c(O)c(I)c1Oc1c2cc(I)c(O)c1I [erythrosine]
[1]
  avg_fc (SLC16A11 expression, compound treated vs DMSO treated cells): 0.649

## COc1cc(Nc2ncc(F)c(Nc3ccc4c(n3)N(COP(=O)(O)O)C(=O)C(C)(C)O4)n2)cc(OC)c1OC [fostamatinib]
[1]
  avg_fc (SLC16A11 expression, compound treated vs DMSO treated cells): 3.274

## COc1ccc2ccc(=O)oc2c1 [herniarin]
[1]
  avg_fc (SLC16A11 expression, compound treated vs DMSO treated cells): 0.9563

## O=C1N(c2ccccc2)c2ccccc2C1(Cc1ccncc1)Cc1ccncc1 [linopirdine]
[1]
  avg_fc (SLC16A11 expression, compound treated vs DMSO treated cells): 0.8629

## Cc1cnc(NC(=O)C2=C(O)c3ccccc3S(=O)(=O)N2C)s1 [meloxicam]
[1]
  avg_fc (SLC16A11 expression, compound treated vs DMSO treated cells): 0.9414

## O=C1CC[C@@]2(O)[C@H]3Cc4ccc(O)c5c4[C@@]2(CCN3CC2CC2)[C@H]1O5 [naltrexone]
[1]
  avg_fc (SLC16A11 expression, compound treated vs DMSO treated cells): 1.183

## COc1ccc(-c2cc(=O)c3c(OC)c(OC)c(OC)c(OC)c3o2)cc1OC [nobiletin]
[1]
  avg_fc (SLC16A11 expression, compound treated vs DMSO treated cells): 1.129

## CC[C@@H]1C(=O)OC[C@@H]1Cc1cncn1C [pilocarpine]
[1]
  avg_fc (SLC16A11 expression, compound treated vs DMSO treated cells): 0.7379

## OCCOCCN1CCN(C2=Nc3ccccc3Sc3ccccc32)CC1 [quetiapine]
[1]
  avg_fc (SLC16A11 expression, compound treated vs DMSO treated cells): 1.019

## COc1ccccc1OCC(O)CN1CCN(CC(=O)Nc2c(C)cccc2C)CC1 (stereo not drawn) [ranolazine]
[1]
  avg_fc (SLC16A11 expression, compound treated vs DMSO treated cells): 0.7654

## CO[C@H]1C[C@@H]2CC[C@@H](C)[C@@](O)(O2)C(=O)C(=O)N2CCCC[C@H]2C(=O)O[C@H]([C@H](C)C[C@@H]2CC[C@@H](O)[C@H](OC)C2)CC(=O)[C@H](C)/C=C(\C)[C@@H](O)[C@@H](OC)C(=O)[C@H](C)C[C@H](C)/C=C/C=C/C=C/1C [rapamycin, reference compound]
[1]
  avg_fc (SLC16A11 expression, compound treated vs DMSO treated cells): 1.662

## c1nc2nc(Nc3ccc(N4CCOCC4)cc3)nc(NC3CCCCC3)c2[nH]1 [reversine]
[1]
  avg_fc (SLC16A11 expression, compound treated vs DMSO treated cells): 3.235

## Cn1cnc2c(F)c(Nc3ccc(Br)cc3Cl)c(C(=O)NOCCO)cc21 [selumetinib]
[1]
  avg_fc (SLC16A11 expression, compound treated vs DMSO treated cells): 1.964

## c1ccc2c(CCNc3ccc(Nc4ccncc4)cc3)c[nH]c2c1 [serdemetan]
[1]
  avg_fc (SLC16A11 expression, compound treated vs DMSO treated cells): 0.6384

## CO[C@H]1C[C@@H]2CC[C@@H](C)[C@@](O)(O2)C(=O)C(=O)N2CCCC[C@H]2C(=O)O[C@H]([C@H](C)C[C@@H]2CC[C@@H](OC(=O)C(C)(CO)CO)[C@H](OC)C2)CC(=O)[C@H](C)/C=C(\C)[C@@H](O)[C@@H](OC)C(=O)[C@H](C)C[C@H](C)/C=C/C=C/C=C/1C [temsirolimus]
[1]
  avg_fc (SLC16A11 expression, compound treated vs DMSO treated cells): 1.372

## COc1cc2nccc(Oc3ccc(NC(=O)Nc4cc(C)on4)c(Cl)c3)c2cc1OC [tivozanib]
[1]
  avg_fc (SLC16A11 expression, compound treated vs DMSO treated cells): 1.647

## CCC(=O)N1CCN(c2ccc(-n3c(=O)ccc4cnc5ccc(-c6cnc7ccccc7c6)cc5c43)cc2C(F)(F)F)CC1 [torin-1]
[1]
  avg_fc (SLC16A11 expression, compound treated vs DMSO treated cells): 2.84

## Nc1ccc(-c2ccc3ncc4ccc(=O)n(-c5cccc(C(F)(F)F)c5)c4c3c2)cn1 [torin-2]
[1]
  avg_fc (SLC16A11 expression, compound treated vs DMSO treated cells): 2.843

## N#CC(C#N)=C(N)/C(C#N)=C/c1ccc(O)cc1 [tyrphostin-AG-112]
[1]
  avg_fc (SLC16A11 expression, compound treated vs DMSO treated cells): 0.7594

## Cc1onc(-c2ccccc2)c1-c1ccc(S(N)(=O)=O)cc1 [valdecoxib]
[1]
  avg_fc (SLC16A11 expression, compound treated vs DMSO treated cells): 1.069
